Data as given in ChEMBL document CHEMBL4052601, “Glycybridins A-K, Bioactive Phenolic Compounds from Glycyrrhiza glabra” (J Nat Prod, 2017).

Assays:
[1] = target: T1, Tyrosinase (Homo sapiens) (UniProt P14679); settings: at 10 µM;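 note: tyrosinase of unspecified origin acting on L-tyrosine, compound preincubated with enzyme for 15 min before adding substrate, inhibition expressed versus control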
T1 sequence (whole entry): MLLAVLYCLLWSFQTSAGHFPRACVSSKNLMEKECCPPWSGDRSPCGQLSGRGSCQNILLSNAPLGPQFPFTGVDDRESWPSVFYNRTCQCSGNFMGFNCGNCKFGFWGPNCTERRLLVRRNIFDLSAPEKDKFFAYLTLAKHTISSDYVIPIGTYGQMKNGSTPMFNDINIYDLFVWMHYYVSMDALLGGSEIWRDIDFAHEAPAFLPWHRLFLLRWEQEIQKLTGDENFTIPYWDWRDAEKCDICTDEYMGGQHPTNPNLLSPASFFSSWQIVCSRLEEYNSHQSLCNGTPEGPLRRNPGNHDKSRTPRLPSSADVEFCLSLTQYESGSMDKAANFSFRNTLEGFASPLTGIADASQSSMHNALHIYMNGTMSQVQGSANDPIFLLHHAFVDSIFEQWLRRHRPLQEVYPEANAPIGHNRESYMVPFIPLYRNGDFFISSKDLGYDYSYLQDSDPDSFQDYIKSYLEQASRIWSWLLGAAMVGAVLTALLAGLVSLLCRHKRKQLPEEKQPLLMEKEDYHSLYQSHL
Description: Inhibition of tyrosinase (unknown origin) using L-tyrosine as substrate at 10 uM preincubated for 15 mins followed by substrate addition relative to control

Homo sapiens = assay: Inhibition of LPS-induced NF-kappaB (unknown origin) transactivation expressed in human SW480 cells at 10 uM administered 1 hr after LPS stimulation measured after 6 hrs by luciferase reporter gene assay relative to control; format: cell-based
RAW264.7 = assay: Antiinflammatory activity against mouse RAW264.7 cells assessed as inhibition of LPS-induced nitric oxide production at 10 uM after 24 hrs by Griess assay relative to control; format: functional; settings: RAW264.7, 24 h
A549 = assay: Antiproliferative activity against human A549 cells at 10 uM after 24 hrs by MTS assay relative to control; format: functional; settings: A549, 24 h
HepG2 = assay: Antiproliferative activity against human HepG2 cells at 10 uM after 24 hrs by MTS assay relative to control; format: functional; settings: HepG2, 24 h
MCF7 = assay: Antiproliferative activity against human MCF7 cells at 10 uM after 24 hrs by MTS assay relative to control; format: functional; settings: MCF7, 24 h
[2] = target: T2, Tyrosine-protein phosphatase non-receptor type 1 (Homo sapiens) (UniProt P18031); settings: at 10 µM;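 note: recombinant enzyme assay with pNPP substrate, inhibition read after 30 min versus untreated control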
T2 sequence (whole entry): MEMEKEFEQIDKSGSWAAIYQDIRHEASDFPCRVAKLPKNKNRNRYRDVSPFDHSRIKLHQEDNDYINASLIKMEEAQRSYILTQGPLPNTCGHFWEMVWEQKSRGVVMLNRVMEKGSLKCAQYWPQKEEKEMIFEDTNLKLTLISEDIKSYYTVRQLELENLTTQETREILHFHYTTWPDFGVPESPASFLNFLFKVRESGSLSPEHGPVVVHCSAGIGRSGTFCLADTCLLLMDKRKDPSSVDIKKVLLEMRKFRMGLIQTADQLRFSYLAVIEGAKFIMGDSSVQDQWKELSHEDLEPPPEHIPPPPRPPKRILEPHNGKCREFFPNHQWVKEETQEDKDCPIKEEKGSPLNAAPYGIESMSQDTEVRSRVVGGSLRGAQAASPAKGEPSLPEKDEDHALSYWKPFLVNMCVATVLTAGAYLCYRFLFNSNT
Description: Inhibition of recombinant human PTP1B using pNPP as substrate at 10 uM after 30 mins relative to control

SW480 = assay: Antiproliferative activity against human SW480 cells at 10 uM after 24 hrs by MTS assay relative to control; format: functional; settings: SW480, 24 h

## COc1ccc([C@@H]2COc3c(ccc(O)c3CC=C(C)C)C2)c(O)c1O
[1]
  inhibition: 20.1%
Homo sapiens
  inhibition: 8.4%
RAW264.7
  inhibition at 10 µM: 33%
A549
  inhibition at 10 µM: 15.5%
HepG2
  inhibition at 10 µM: 38%
MCF7
  inhibition at 10 µM: 30.4%
[2]
  inhibition: 80%
SW480
  inhibition at 10 µM: 0.2%

## CC1(C)C=Cc2c(cc(O)c3c(=O)c(-c4ccc(O)cc4)coc23)O1 [DERRONE]
[1]
  inhibition: 11%
Homo sapiens
  inhibition: 30.8%
RAW264.7
  inhibition at 10 µM: 0%
A549
  inhibition at 10 µM: 0%
HepG2
  inhibition at 10 µM: 23.7%
MCF7
  inhibition at 10 µM: 13.6%
[2]
  inhibition: 21%
SW480
  inhibition at 10 µM: 0%

## COc1cc(/C=C/C(=O)CC(=O)/C=C/c2ccc(O)c(OC)c2)ccc1O [CURCUMIN]
RAW264.7
  inhibition at 10 µM: 70%

## CC1(C)C=Cc2cc3c(cc2O1)OCC(c1ccc(O)c2c1OC(C)(C)C=C2)=C3
[1]
  inhibition: 1.3%
Homo sapiens
  inhibition: 0%
RAW264.7
  inhibition at 10 µM: 2.6%
A549
  inhibition at 10 µM: 0.7%
HepG2
  inhibition at 10 µM: 0%
MCF7
  inhibition at 10 µM: 26.6%
[2]
  inhibition: 95.3%
SW480
  inhibition at 10 µM: 24.3%

## CC1(C)C=Cc2c(ccc3cc(-c4ccc(O)cc4O)oc23)O1
[1]
  inhibition: 66.9%
Homo sapiens
  inhibition: 17%
RAW264.7
  inhibition at 10 µM: 14.2%
A549
  inhibition at 10 µM: 0%
HepG2
  inhibition at 10 µM: 12.3%
MCF7
  inhibition at 10 µM: 20.4%
[2]
  inhibition: 73.1%
SW480
  inhibition at 10 µM: 27.6%

## C[C@H]1[C@H](C)CC[C@]2(C(=O)O)CC[C@]3(C)C(=CC[C@@H]4[C@@]5(C)CC[C@H](O)C(C)(C)[C@@H]5CC[C@]43C)[C@H]12
[2]
  inhibition: 82.1%

## CC1(C)C=Cc2c(ccc3c(=O)c(Oc4ccc(O)cc4O)coc23)O1
[1]
  inhibition: 2.4%
Homo sapiens
  inhibition: 18.1%
RAW264.7
  inhibition at 10 µM: 6.3%
A549
  inhibition at 10 µM: 0%
HepG2
  inhibition at 10 µM: 29.9%
MCF7
  inhibition at 10 µM: 2.6%
[2]
  inhibition: 12.8%
SW480
  inhibition at 10 µM: 7.1%

## O=C1C[C@@H](c2ccc(O)cc2)Oc2cc(O)cc(O)c21 [NARINGENIN]
[1]
  inhibition: 2.2%
Homo sapiens
  inhibition: 0%
RAW264.7
  inhibition at 10 µM: 0%
A549
  inhibition at 10 µM: 0.3%
HepG2
  inhibition at 10 µM: 34.5%
MCF7
  inhibition at 10 µM: 16.8%
[2]
  inhibition: 4.1%
SW480
  inhibition at 10 µM: 0%

## CC1(C)C=Cc2cc([C@@H]3CC(=O)c4ccc5c(c4O3)C=CC(C)(C)O5)ccc2O1 [XAMBIOONA]
[1]
  inhibition: 0%
Homo sapiens
  inhibition: 0%
RAW264.7
  inhibition at 10 µM: 6.9%
A549
  inhibition at 10 µM: 10.9%
HepG2
  inhibition at 10 µM: 0%
MCF7
  inhibition at 10 µM: 0%
[2]
  inhibition: 76.9%
SW480
  inhibition at 10 µM: 7.9%

## CC(C)=CCc1c(O)cc(O)c2c(=O)c(-c3ccc(O)cc3O)coc12
[1]
  inhibition: 49.6%
Homo sapiens
  inhibition: 0%
RAW264.7
  inhibition at 10 µM: 10.3%
A549
  inhibition at 10 µM: 4.2%
HepG2
  inhibition at 10 µM: 0%
MCF7
  inhibition at 10 µM: 7.4%
[2]
  inhibition: 18.2%
SW480
  inhibition at 10 µM: 4.2%

## COc1c(CC=C(C)C)c(O)cc2c1C[C@H](c1ccc(O)cc1O)CO2
[1]
  inhibition: 91.1%

## CC(C)=CCc1cc([C@H]2Oc3c(ccc4c3C=CC(C)(C)O4)C(=O)[C@@H]2O)ccc1O
[1]
  inhibition: 8.1%
Homo sapiens
  inhibition: 40.3%
RAW264.7
  inhibition at 10 µM: 0.3%
A549
  inhibition at 10 µM: 21.2%
HepG2
  inhibition at 10 µM: 42.9%
MCF7
  inhibition at 10 µM: 13.5%
[2]
  inhibition: 10.6%
SW480
  inhibition at 10 µM: 9.2%

## COc1ccc(-c2coc3cc(O)ccc3c2=O)cc1 [FORMONONETIN]
[1]
  inhibition: 4.3%
Homo sapiens
  inhibition: 0%
RAW264.7
  inhibition at 10 µM: 0%
A549
  inhibition at 10 µM: 15.4%
HepG2
  inhibition at 10 µM: 8.2%
MCF7
  inhibition at 10 µM: 51.8%
[2]
  inhibition: 9.9%
SW480
  inhibition at 10 µM: 0%
